Values quoted from earlier work in patent US20110190266A1, “5,6,6a,7,8,9-HEXAHYDRO-2H-PYRIDOPHTHALAZINONE INHIBITORS OF POLY(ADP-RIBOSE)POLYMERASE (PARP)” (priority 2010, published 2011).
Read-outs that look alike come from different tables or passages of the source.

Columns and labels:
PARP-1 = PARP-1 (Homo sapiens, UniProt P09874)
[1] = tested on: BRCA2-deficient cell line V-C8; conditions: BRCA2-deficient V-C8 compared with the BRCA2 wild type control
CAPAN-1 cells = CAPAN-1 cells in DMEM supplemented with FCS (20% v/v), glutamine and antibiotics

Chain of PARP-1 (P09874 whole entry, species assumed): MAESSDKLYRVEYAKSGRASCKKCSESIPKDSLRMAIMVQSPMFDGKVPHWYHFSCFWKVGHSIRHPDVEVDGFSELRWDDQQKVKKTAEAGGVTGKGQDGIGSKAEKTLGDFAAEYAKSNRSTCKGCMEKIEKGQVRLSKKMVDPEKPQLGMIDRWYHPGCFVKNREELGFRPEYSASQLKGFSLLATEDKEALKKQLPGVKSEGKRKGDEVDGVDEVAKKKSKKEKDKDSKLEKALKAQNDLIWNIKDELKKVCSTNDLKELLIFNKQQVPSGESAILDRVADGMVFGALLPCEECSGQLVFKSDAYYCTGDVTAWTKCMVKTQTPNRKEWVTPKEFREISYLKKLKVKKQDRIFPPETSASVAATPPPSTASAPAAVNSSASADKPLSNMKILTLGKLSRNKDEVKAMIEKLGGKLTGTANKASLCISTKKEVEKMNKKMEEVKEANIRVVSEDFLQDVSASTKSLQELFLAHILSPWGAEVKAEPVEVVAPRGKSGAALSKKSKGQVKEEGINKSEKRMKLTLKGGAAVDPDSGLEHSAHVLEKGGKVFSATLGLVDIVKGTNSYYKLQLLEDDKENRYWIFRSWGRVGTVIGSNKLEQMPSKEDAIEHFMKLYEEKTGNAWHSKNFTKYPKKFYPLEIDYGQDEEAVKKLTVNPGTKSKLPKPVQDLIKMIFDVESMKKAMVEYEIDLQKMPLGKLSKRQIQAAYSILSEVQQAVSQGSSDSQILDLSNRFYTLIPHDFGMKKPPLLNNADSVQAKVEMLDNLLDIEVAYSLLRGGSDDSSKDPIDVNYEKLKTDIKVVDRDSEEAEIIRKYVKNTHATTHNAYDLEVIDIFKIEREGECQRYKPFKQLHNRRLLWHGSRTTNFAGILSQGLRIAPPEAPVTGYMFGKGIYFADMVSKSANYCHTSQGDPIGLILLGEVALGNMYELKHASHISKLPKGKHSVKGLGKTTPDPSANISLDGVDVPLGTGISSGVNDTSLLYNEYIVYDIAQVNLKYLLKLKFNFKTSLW

For `CN(C)Cc1ccc(-c2nc3cccc4c3n2CCNC4=O)cc1` [AG14361], the Ki (PARP-1; PARP-1 inhibitor) is given as 0.005 µM and the “sensitivity in clonogenic survival assay” value [1] is given as “exhibited sensitivity”.

For `O=C1CCC(=O)N1c1cc(Cc2n[nH]c(=O)c3ccccc23)ccc1F` [KU0058684], the “sensitivity to PARP inhibition in clonogenic survival assay” value (CAPAN-1 cells) is given as “showing sensitivity” and the “in vivo efficacy, tumor growth” value (BRCA2-deficient tumors) is given as “in vivo efficacy in blocking the growth of BRCA2-deficient tumors”.

In the case of `Cc1nc2c(O)cccc2c(=O)[nH]1` [NU1025], the Ki (PARP-1; moderately potent PARP-1 inhibitor) is listed as 0.05 µM and the “sensitivity in clonogenic survival assay” value [1] is listed as “exhibited sensitivity”.
